# The source made the active and inactive calls.
# Columns and labels:
# [1] = target: Peroxisome proliferator-activated receptor gamma (Homo sapiens, UniProt P37231); assay: PPARg transcriptional activation, reporter cells – cell-based, luminescence, assay provider, dose response (AID 504447); type: functional
# [2] = target: T1, G-protein coupled receptor 35 (Homo sapiens, UniProt Q9HC97); assay: SAR analysis of Agonists of the GPR35 Receptor using an Image-Based Assay - Set 3. [Related pubchem assays (depositor defined):AID1961, AID1965]; type: functional
# Cannabinoid receptor 2 [3] = target: T2, Cannabinoid receptor 2 (Homo sapiens, UniProt P34972); assay: SAR analysis of antagonists of the Cannabinoid Receptor 2 using an Image-Based Assay - Set 2. [Related pubchem assays (depositor defined):AID1961, AID1965]; type: functional
# Cannabinoid receptor 1 [4] = target: T3, Cannabinoid receptor 1 (Homo sapiens, UniProt P21554); assay: SAR analysis of antagonists of the Cannabinoid Receptor 1 using an Image-Based Assay - Set 3. [Related pubchem assays (depositor defined):AID1961, AID1965]; type: functional
# Cannabinoid receptor 2 [5] = target: T2, Cannabinoid receptor 2; assay: SAR analysis of agonists of the Cannabinoid Receptor 2 using an Image-Based Assay - Set 2. [Related pubchem assays (depositor defined):AID1961, AID1965]; type: functional
# Cannabinoid receptor 1 [6] = target: T3, Cannabinoid receptor 1; assay: SAR analysis of agonists of the Cannabinoid Receptor 1 using an Image-Based Assay - Set 3. [Related pubchem assays (depositor defined):AID1961, AID1965]; type: functional
# [7] = target: G-protein coupled receptor 55 (Homo sapiens, UniProt Q9Y2T6); assay: SAR analysis of selective Agonists of GPR55 using an Image-Based Assay - Set 2. [Related pubchem assays (depositor defined):AID1961, AID1965]; type: functional
# [8] = target: T1, G-protein coupled receptor 35; assay: SAR analysis of Antagonists of the GPR35 Receptor using an Image-Based Assay - Set 4. [Related pubchem assays (depositor defined):[…]]; type: functional
# [9] = target: T4, Kappa-type opioid receptor (Homo sapiens, UniProt P41145); assay: kappa opioid receptor activation by imaging – image-based, set 3, SAR follow-up (AID 488833); type: functional
# [10] = target: Delta-type opioid receptor (Homo sapiens, UniProt P41143); assay: SAR Analysis of Agonists of the DOR Receptor using an Image-Based Assay - Set 3. [Related pubchem assays (depositor defined):AID1777, AID1786]; type: functional
# Mu-type opioid receptor = Mu-type opioid receptor (Homo sapiens, UniProt P35372); assay: SAR Analysis of Agonists of the MOR Receptor using an Image-Based Assay - Set 3. [Related pubchem assays (depositor defined):AID1777, AID1785, AID1786, AID1966, AID2133, AID2136, AID2284, AID2285, AID2352]; type: functional
# [11] = target: T4, Kappa-type opioid receptor; assay: SAR analysis of small molecule agonists of the kappa opioid receptor via a luminescent beta-arrestin assay - Set 3. [Related pubchem assays (depositor defined):AID1777, AID1785, AID1786, AID1966, AID2133, AID2136, AID2284, AID2500]; type: functional
# Streptokinase A = target: T5, Streptokinase A (Streptococcus pyogenes serotype M1, UniProt P10520); assay: viability-normalized secreted streptokinase activity reduction – plasminogen activation absorbance, OD405, dose response (AID 1914); type: functional, Streptococcus pyogenes M1 GAS;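 further: secreted streptokinase activity via plasminogen activation per viability signal from cell pellet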
# T5 sequence (P10520 whole entry): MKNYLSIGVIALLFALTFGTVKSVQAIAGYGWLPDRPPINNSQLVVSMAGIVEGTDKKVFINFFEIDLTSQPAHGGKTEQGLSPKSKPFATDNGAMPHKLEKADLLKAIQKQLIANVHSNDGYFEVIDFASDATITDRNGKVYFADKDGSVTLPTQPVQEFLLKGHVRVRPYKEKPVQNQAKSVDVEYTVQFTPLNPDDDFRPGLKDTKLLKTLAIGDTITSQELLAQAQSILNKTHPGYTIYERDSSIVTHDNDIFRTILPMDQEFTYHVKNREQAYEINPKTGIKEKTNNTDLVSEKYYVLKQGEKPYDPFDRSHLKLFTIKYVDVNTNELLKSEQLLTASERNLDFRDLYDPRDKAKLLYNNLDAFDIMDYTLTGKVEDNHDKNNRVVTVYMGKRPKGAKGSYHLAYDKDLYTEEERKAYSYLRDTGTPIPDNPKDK
# [12] = system: Streptococcus sp. 'group A'; assay: Streptococcus pyogenes SK(-)GAS viability under kanamycin – luminescence, BacTiterGlo, confirmation, counter-screen for streptokinase expression inhibitor project, dose response (AID 1900); type: functional, organism-based
# [13] = PhoP promoter GFP reporter reduction in Typhimurium – purified and synthesized compounds, set 2, PhoP regulon inhibitor project, dose response (AID 2831); type: functional
# [14] = target: Heat shock protein HSP 90-alpha (Homo sapiens, UniProt P07900); type: functional, organism-based
# Streptococcus = assay: GAS UMAA2166 growth inhibition – luminescence, BacTiterGlo, counter-screen for streptokinase expression inhibitor project, dose response (AID 1915); type: functional, organism-based;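 further: potency for reduction of bacterial viability or growth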
# [15] = target: T6, Runt-related transcription factor 1/Core-binding factor subunit beta (Homo sapiens, UniProt Q01196+Q13951); assay: Runt domain/CBFb-SMMHC interaction disruptors – biochemical, TR-FRET (AID 1438); type: protein assay
# NS3 = NS3 (Hepatitis C virus, UniProt A3EZJ3); assay: PubChem AID 2173; parameters: species or system Hepacivirus hominis
# [16] = target: T6, Runt-related transcription factor 1/Core-binding factor subunit beta; assay: disruptors of Runt domain/CBFb-SMMHC interaction – biochemical, FRET, Cerulean-Runt, Venus-CBFb-SMMHC, uHTS, […] (AID 1434); type: protein assay
# [17] = target: T7, Voltage-gated N-type calcium channel alpha-1B subunit/Amyloid beta A4 precursor protein-binding family A member 1 (Homo sapiens, UniProt Q00975+Q02410); type: protein assay
# [18] = target: Induced myeloid leukemia cell differentiation protein Mcl-1 (Homo sapiens, UniProt Q07820); type: functional
# [19] = target: T7, Voltage-gated N-type calcium channel alpha-1B subunit/Amyloid beta A4 precursor protein-binding family A member 1; type: protein assay; remark: listed apart in the source
# [20] = target: T7, Voltage-gated N-type calcium channel alpha-1B subunit/Amyloid beta A4 precursor protein-binding family A member 1; assay: disruptors of Mint-PDZ/N-type channel peptide interaction – biochemical, HTRF, SAR follow-up (AID 2489); type: functional
# [21] = target: T8, Probable nicotinate-nucleotide adenylyltransferase (Staphylococcus aureus (strain N315), UniProt P65502); type: functional, Staphylococcus aureus subsp. aureus N315;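 on IC50 Mean: confirmatory dose-response retesting of NadD inhibitor hits first found in an ultra-high-throughput screen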
# [22] = target: T8, Probable nicotinate-nucleotide adenylyltransferase; type: functional, Staphylococcus aureus subsp. aureus N315; details: read-out: IC50_Mean
# [23] = target: T9, E3 ubiquitin-protein ligase XIAP (Homo sapiens, UniProt P98170); assay: Counter Screen using XIAP-Bir3 of the Chemical Antagonists of IAP-family anti-apoptotic proteins confirmation assay. [Related pubchem assays (depositor defined):AID1018, AID1449, AID1513, AID1638, AID1749, AID1750, AID488957, AID488963]
# [24] = target: T9, E3 ubiquitin-protein ligase XIAP; assay: Chemical Antagonists of IAP-family anti-apoptotic proteins confirmation. [Related pubchem assays (depositor defined):AID1018, AID1513, AID1514, AID1638, AID1749, AID1750, AID488957, AID488963]
# [25] = target: Signal transducer and activator of transcription 1-alpha/beta (Homo sapiens, UniProt P42224); assay: STAT3 blockade with qPCR and toxicity readouts – cell-based, STAT1 panel, cytotoxicity, late-stage follow-up, panel member STAT1 Inhibition (AID 2078)
# [26] = target: Signal transducer and activator of transcription 3 (Homo sapiens, UniProt P40763); assay: STAT3 blockade with qPCR and toxicity readouts – cell-based, STAT1 panel, cytotoxicity, late-stage follow-up, panel member STAT3 Inhibition (AID 2078)
# [27] = target: T10, COUP transcription factor 2 (Homo sapiens, UniProt P24468); assay: Luminescence-based cell-based high throughput dose response assay to identify inhibitors of COUP-TFII (NR2F2).; type: functional;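 further: HEK293 cells transiently cotransfected with COUP-TFII expression vector and reporter; luciferase reporter luminescence driven by COUP-TFII from the pX2-168 reporter plasmid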
# T10 sequence (P24468 whole entry): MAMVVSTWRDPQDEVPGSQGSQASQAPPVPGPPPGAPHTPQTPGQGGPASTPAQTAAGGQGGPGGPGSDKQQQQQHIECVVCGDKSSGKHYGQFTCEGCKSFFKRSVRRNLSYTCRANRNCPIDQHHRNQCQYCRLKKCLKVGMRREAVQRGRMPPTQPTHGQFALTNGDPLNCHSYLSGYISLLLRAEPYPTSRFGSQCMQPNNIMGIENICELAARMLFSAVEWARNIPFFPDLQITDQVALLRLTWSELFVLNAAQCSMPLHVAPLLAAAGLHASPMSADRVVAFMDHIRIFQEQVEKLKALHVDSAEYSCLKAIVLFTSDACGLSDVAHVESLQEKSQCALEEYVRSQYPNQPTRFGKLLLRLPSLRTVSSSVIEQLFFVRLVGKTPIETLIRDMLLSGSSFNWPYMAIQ
# Troponin, cardiac muscle = Troponin, cardiac muscle (Homo sapiens, UniProt P19429+P45379+P63316); assay: Fluorescence-based biochemical high throughput dose response assay for activators of the calcium sensitivity of cardiac Regulated Thin Filaments (RTF). [Related pubchem assays (depositor defined):AID493008, AID493018, AID504382, AID504383]; type: protein-complex assay
# INS1 = assay: INS-1E survival protection against cytokine death – cell-based, luminescence, retest, dose response (AID 449756); type: functional; details: Rattus norvegicus;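 further: cell death triggered by IL-1 beta plus TNF-alpha plus IFN-gamma mixture; protective hits raise ATP signal compared with cytokine alone wells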
# [28] = Luminescence Cell-Based Dose Response HTS to Identify Inhibitors of Luciferase Translation or Activity in H4-C Neuroglioblastoma Cells. [Related pubchem assays: 1813 (Primary HTS), 1827 (Project Summary)]; type: functional
# [29] = luciferase reporter signal suppression in cells – H4 neuroglioma cells, luminescence, dose response (AID 1990); type: functional, cell-based
# [30] = Luminescence Cell-Based Dose HTS Response to Identify Inhibitors of 5'UTR Stem-Loop Driven Prion Protein mRNA Translation in H4-C Neuroglioblastoma Cells. [Related pubchem assays (depositor defined):AID1814, AID1827]; type: functional
# [31] = HEK-293T viability loss after treatment – luminescence, T-cell screen hits, cytotoxicity control for TCR NF-kB inhibitor project, dose response (AID 489026); type: functional, cell-based;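 further: cells exposed to compound about 14 hours before the viability readout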
# [32] = alpha-synuclein stem-loop luciferase translation blockers – H4 neuroglioma cells, luminescence, confirmation (AID 1988); type: functional, cell-based
# [33] = Luminescence Cell-Based Dose Response HTS to Identify Activators of 5'UTR Stem-Loop Driven Prion Protein mRNA Translation in H4-C Neuroglioblastoma Cells. [Related pubchem assays: 1829 (Project Summary), 1814 (Primary HTS)]; type: functional
# [34] = Luminescence Cell-Based Dose Retest to Confirm Activators of 5'UTR Stem-Loop Driven Alpha-Synuclein mRNA Translation in H4 Neuroglioblastoma Cells. [Related pubchem assays (depositor defined):AID1813, AID1829]; type: functional
# [35] = Luminescence Cell-Based Dose Response HTS to Identify Activators of Luciferase Translation or Activity in H4-C Neuroglioblastoma Cells. [Related pubchem assays: 1829 (Project Summary), 1814 (Primary HTS)]; type: functional
# [36] = Luminescence Cell-Based Dose Confirmation HTS to Identify Inhibitors of 5'UTR Stem-Loop Driven Alpha-Synuclein mRNA Translation in H4 Neuroglioblastoma Cells. [Related pubchem assays: 1827 (Project Summary), 1813 (Primary HTS)]; type: functional
# [37] = Luminescence Cell-Based Dose Response HTS to Identify Inhibitors of 5'UTR Stem-Loop Driven Prion Protein mRNA Translation in H4 Neuroglioblastoma Cells. [Related pubchem assays: 1827 (Project Summary), 1813 (Primary HTS)]; type: functional
smiles,measurement,setting,value
COc1cccc(Cn2nc3c4cc(F)ccc4n(Cc4ccc(F)cc4)cc-3c2=O)c1,EC50,[1],0.502 µM (active)
COc1ccc(S(=O)(=O)N2CCOCC2)cc1NC(=O)c1ccc(OCC(C)C)c(OC)c1,EC50,[2],> 32 µM (inactive)
same,IC50,Cannabinoid receptor 2 [3],> 32 µM (inactive)
same,IC50,Cannabinoid receptor 1 [4],> 32 µM (inactive)
same,EC50,Cannabinoid receptor 2 [5],> 32 µM (inactive)
same,EC50,Cannabinoid receptor 1 [6],> 32 µM (inactive)
same,EC50,[7],4.56 µM (active)
same,IC50,[8],> 32 µM (inactive)
COC(=O)c1ccc(CSc2nnc(-c3ccccn3)n2Cc2cccs2)cc1,EC50,[9],5.99 µM (active)
same,EC50,[10],> 32 µM (inactive)
same,EC50,Mu-type opioid receptor,> 32 µM (inactive)
same,EC50,[11],6.14 µM (active)
CSc1nc2cc(Cl)c(Oc3cccc(Cl)c3Cl)cc2[nH]1 [TRICLABENDAZOLE],EC50,Streptokinase A,4.69 µM (active)
same,EC50,[12],2.26 µM (active)
same,IC50,[13],> 125 µM (active)
same,AC50,[14],4.25 µM (active)
same,EC50,Streptococcus,6.22 µM (active)
O=C(COC(=O)c1c2c(nc3ccccc13)/C(=C/c1ccco1)CC2)NC1CCCC1,IC50,[15],10.4 µM (active)
same,IC50,NS3,12.6 µM (not active)
same,IC50,[16],> 100 µM (inactive)
same,IC50,[17],5.81 µM (active)
same,IC50,[18],6.5 µM (active)
same,IC50,[19],9.12 µM (active)
same,IC50,[20],3.75 µM (active)
same,IC50,[21],6.95 µM (active)
same,IC50,[22],15 µM (active)
O=C(O)C(c1ccc(F)cc1)N1Cc2ccccc2C1=O (stereo unspecified),IC50,[23],> 200 µM (inactive)
same,IC50,[24],> 200 µM (inactive)
O=C(c1ccccc1)C1CCN(c2ncnc3sccc23)CC1,IC50,[25],> 55.7 µM (inactive)
same,IC50,[26],0.688 µM (active)
same,IC50,[27],5.71 µM (active)
O=C(N/N=C/c1sc2ccccc2c1O)c1ccccc1,EC50,[12],0.702 µM (active)
same,EC50,"Troponin, cardiac muscle",3.91 µM (active)
same,AC50,INS1,0.864 µM (active)
same,AC50,[14],1.02 µM (active)
same,EC50,Streptococcus,10.1 µM (active)
CCOC(=O)c1[nH]c(C)c(C(=O)c2cc(F)ccc2F)c1C,EC50,[28],0.557 µM (active)
same,EC50,[29],10.6 µM (active)
same,EC50,[30],0.241 µM (active)
same,IC50,[31],> 80 µM (inactive)
same,EC50,[32],0.2 µM (active)
same,EC50,[33],0.241 µM (inconclusive)
same,EC50,[34],1.66 µM (inconclusive)
same,EC50,[35],0.557 µM (inconclusive)
same,EC50,[36],1.66 µM (active)
same,EC50,[37],11.5 µM (active)

# Source: ChEMBL document CHEMBL1201862, “PubChem BioAssay data set” (2004)
